Experimental data as given in ChEMBL document CHEMBL1201862, “PubChem BioAssay data set” (2004).
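Five compound concentrations were applied to cells in 96-well plates for 48 hours; endpoints were derived by simple linear interpolation of the resulting dose-response curve. The concentration for 50% growth inhibition is given as GI50.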 The source made the active and inactive calls. Rule as the data show it: active = GI50 up to about 1.1 µM and inactive = higher. Peptide text beside a SMILES is read from it. * marks the point of attachment. Boc = CC(C)(C)OC(=O)*

Tests used:
Experiment in all cases: NCI tumour cell line growth inhibition, 48 h
[1] = system: MCF7
[2] = system: K562
[3] = system: UO-31
[4] = system: MDA-N
[5] = system: NCI-H460
[6] = system: 786-0
[7] = system: HT-29
[8] = system: HCT-15
[9] = system: NCI/ADR-RES
[10] = system: SK-OV-3
[11] = system: HOP-62
[12] = system: T47D
[13] = system: MOLT-4
[14] = system: BT-549
[15] = system: SN12C
[16] = system: A498
[17] = system: SK-MEL-5
[18] = system: CAKI-1
[19] = system: OVCAR-3
[20] = system: NCI-H522

SMILES	GI50 [1]	GI50 [2]	GI50 [3]	GI50 [4]	GI50 [5]	GI50 [6]	GI50 [7]	GI50 [8] [µM]	GI50 [9]	GI50 [10]	GI50 [11]	GI50 [12]	GI50 [13]	GI50 [14]	GI50 [15]	GI50 [16]	GI50 [17]	GI50 [18]	GI50 [19]	GI50 [20]
O=C(O)c1cc(Cl)cc(Cc2cc(Cl)cc(C(=O)O)c2O)c1O	> 100 µM (inactive)	> 100 µM (inactive)	> 100 µM (inactive)	> 100 µM (inactive)	> 100 µM (inactive)	> 100 µM (inactive)	> 100 µM (inactive)	> 100	> 100 µM (inactive)	> 100 µM (inactive)	> 100 µM (inactive)	> 100 µM (inactive)	> 100 µM (inactive)	> 100 µM (inactive)	> 100 µM (inactive)	> 100 µM (inactive)	> 100 µM (inactive)	> 100 µM (inactive)	> 100 µM (inactive)	> 100 µM (inactive)
CCOC(=O)c1nc2cc(F)c(N3CCOCC3)cc2[nH]c1=O	> 100 µM (inactive)	> 100 µM (inactive)	65.3 µM (inactive)	> 100 µM (inactive)	> 100 µM (inactive)	> 100 µM (inactive)	> 100 µM (inactive)	> 100	> 100 µM (inactive)	> 100 µM (inactive)	> 100 µM (inactive)	> 100 µM (inactive)	> 100 µM (inactive)	> 100 µM (inactive)	> 100 µM (inactive)	> 100 µM (inactive)	> 100 µM (inactive)	> 100 µM (inactive)	> 100 µM (inactive)	76 µM (inactive)
COc1ccc(C)cc1Nc1nnc(-c2ccccc2N)s1	37.8 µM (inactive)	13.7 µM (inactive)	36.8 µM (inactive)	28.9 µM (inactive)	31 µM (inactive)	51.2 µM (inactive)	41.5 µM (inactive)	45.2	34.8 µM (inactive)	> 100 µM (inactive)	44.7 µM (inactive)	49.2 µM (inactive)	2.41 µM (inactive)	62.7 µM (inactive)	32 µM (inactive)	74.8 µM (inactive)	13.7 µM (inactive)	28.4 µM (inactive)	37.5 µM (inactive)	20.2 µM (inactive)
Cc1ccc2c3c1O[C@H]1c4[nH]c5ccccc5c4C[C@@]4(O)[C@@H](C2)N(CC2CC2)CC[C@]314	16.4 µM (inactive)	15.5 µM (inactive)	13.4 µM (inactive)	16.2 µM (inactive)	15.2 µM (inactive)	13.8 µM (inactive)	4.42 µM (inactive)	12.7	19.1 µM (inactive)	16.4 µM (inactive)	19.2 µM (inactive)	17.6 µM (inactive)	12.2 µM (inactive)	18.3 µM (inactive)	15.3 µM (inactive)	17.1 µM (inactive)	14.1 µM (inactive)	16.6 µM (inactive)	14.4 µM (inactive)	15 µM (inactive)
COC(=O)C(Cc1ccccc1)NC(=O)C(CS)NC(=O)OC(C)(C)C (stereo not drawn) (Boc-Cys-Phe-OMe; configuration not given here)	73.5 µM (inactive)	38.2 µM (inactive)	74.1 µM (inactive)	> 100 µM (inactive)	> 100 µM (inactive)	> 100 µM (inactive)	99.3 µM (inactive)	> 100	> 100 µM (inactive)	> 100 µM (inactive)	> 100 µM (inactive)	> 100 µM (inactive)	8.55 µM (inactive)	> 100 µM (inactive)	> 100 µM (inactive)	> 100 µM (inactive)	> 100 µM (inactive)	> 100 µM (inactive)	88.1 µM (inactive)	> 100 µM (inactive)
